Data: patent US8324237B2, “Methods for the treatment and prevention of inflammatory diseases” (priority 2005, dated 2012)

Legend:
[1] = tested on: human sphingosine kinase; experiment: Screening assay for inhibitors of SK; format: biochemical; settings: library screen
Description: An assay for screening for inhibitors of SK has been established (French et al., Cancer Res 63: 5962 (2003)). […] Representative active compounds from four chemotypes of SK inhibitors, designated herein as Compounds I-IV, are shown in FIG. 1.

[2] = tested on: endogenous SK in rat IEC6 cells; experiment: Cell-based [3H]sphingosine to [3H]S1P assay of endogenous SK activity, rat IEC6 cells; settings: FIG. 2A
Procedure: (§1) FIG. 2. […] Values represent the mean±sd SK activity in triplicate samples in a typical experiment. A cell-based assay in which the phosphorylation of exogenously added [^3H]sphingosine to [^3H]S1P by endogenous SK can be quantified (French et al., Cancer Res 63: 5962 (2003)) was used to evaluate the effects of test compounds on the activity of SK in intact cells. In this assay, cells are incubated with [^3H]sphingosine for an appropriate period of time, and then [^3H]sphingosine and [^3H]S1P (formed by endogenous SK activity) are separated by extraction and levels of both species are determined by scintillation counting. […] For example, human umbilical vein endothelial cells (HUVECs) are commonly used as a model of human vasculature. Additionally, rat IEC6 cells are commonly used as a model of intestinal epithelial cells.

[3] = tested on: endogenous SK in human umbilical vein endothelial cells (HUVECs); experiment: Cell-based [3H]sphingosine to [3H]S1P assay of endogenous SK activity, HUVECs; settings: for cellular levels of [3H]S1P: 24 hours treatment, FIG. 3
Procedure: as §1, with “typical experiment. FIG. 3. […] HUVECs were treated with the indicated concentrations of Compound I, II or V for 24 hours. SK activity was measured by adding [^3H]sphingosine and determining its conversion to [3H]S1P. Values represent the mean±SD of duplicate samples. A cell-based” for “typical experiment. A cell-based”, “epithelial cells. […] Specifically, HUVECs, human chondrocytes (HC), and human synovial cells from a patient with RA (HFLS-RA) were examined.” for “epithelial cells.”

[4] = tested on: NFκB; experiment: TNFα-induced NFκB luciferase reporter assay in fibroblasts; format: cell-based; settings: TNFα for 6 hours, FIG. 4
Procedure: FIG. 4. Inhibition of TNFα-induced activation of NFκB by ABC294640. Fibroblasts transfected with a TNFα-responsive promoter linked to luciferase were treated with the indicated concentrations of ABC294640 and then treated with TNFα for 6 hours. The amount of luciferase expressed by the cells was then measured by luminescence. Values represent the mean±sd luciferase activity in triplicate samples in a typical experiment.

[5] = tested on: ICAM-1 and VCAM-1 in human endothelial cells; experiment: TNFα-induced adhesion molecule expression (Western analysis); format: cell-based; settings: TNFα 100 ng/mL, 6 hours
Procedure: Like endothelial cells in the body, HUVECs will proliferate in response to several growth factors, and will respond to inflammatory cytokines such as TNFα and IL-1β. Western analyses were conducted with human endothelial cells to evaluate the effects of the SK inhibitors on signaling proteins known to be regulated by TNFα. […] Cell lysates from treated cells were assayed for the adhesion molecules ICAM-1 and VCAM-1. TNFα caused marked increases in the expression levels of adhesion proteins involved in leukocyte recruitment, including ICAM-1 and VCAM-1.

[6] = tested on: Cox-2 activity (PGE2 production) in IEC6 rat intestinal epithelial cells; experiment: TNFα-induced Cox-2 activity (PGE2 ELISA), IEC6 cells; format: cell-based; settings: 10 μg/mL compound, 100 ng TNFα/mL, 18 hours
[7] = tested on: Cox-2 activity (PGE2 production) in human endothelial cells; experiment: TNFα-induced Cox-2 activity (PGE2 ELISA), human endothelial cells; format: cell-based; settings: 10 μg/mL compound, 100 ng TNFα/mL, 18 hours
[8] = tested on: male C57BL/6 mice, DSS-colitis; experiment: Acute DSS-colitis model of IBD; format: in vivo; settings: 2% DSS, 50 mg/kg oral daily; for Disease Activity Index (DAI): Days 4-6
[9] = tested on: mice, chronic DSS-colitis; experiment: Chronic (35-day) DSS-colitis model of IBD; format: in vivo; settings: for colon length: Day 35, 50 mg/kg oral daily for 7 days, DSS alone 4.9±0.2, water 7.8±0.3; for serum level of IL-6: at time of sacrifice; for increase in DAI: third DSS exposure, 50 mg/kg oral daily Day 28-35, P<0.001 on Day 35; for colonic levels of pro-inflammatory cytokines TNFα, IL-1β, IFN-γ and IL-6: treated during the final DSS cycle, 50 mg/kg oral
[10] = tested on: female DBA/1 mice, Collagen-Induced Arthritis; experiment: Collagen-Induced Arthritis (CIA) model; format: in vivo; settings: Day 12; ABC294640 100 mg/kg, ABC747080 50 mg/kg oral
[11] = tested on: male Lewis rats, adjuvant-induced arthritis; experiment: Adjuvant-induced arthritis model; format: in vivo; settings: 5, 35, 100 mg/kg oral daily, 10 days
Procedure: FIG. 18. Effects of ABC294640 on disease progression in the adjuvant-induced arthritis model in rats. Male Lewis rats were injected subcutaneously with Mycobacterium butyricum, and symptoms of immune reactivity were present after 2 weeks. Responsive rats were randomized into treatment groups (n=8 per group), and received oral daily doses of: solvent alone (0.375% Tween-80); 100 mg/kg ABC294640; 35 mg/kg ABC294640; or 5 mg/kg ABC294640, or intraperitoneal injections of indomethacin (5 mg/kg) every other day. The severity of disease in each animal was quantified by measurement of the hind paw thickness. Panel A. Time course of hind paw arthritic response. Panel B. Final day (Day 10) hind paw thickness measurements. Panel C. Change in paw thickness of respective group versus non-arthritic rats (naive) at Day 10. *, p<0.05; ***, p<0.001 versus solvent alone group.
Adjuvant-induced arthritis is another widely used assay that recapitulates many features of human rheumatoid arthritis, and so is useful in the evaluation of new drug candidates. Age- and weight-matched male Lewis rats (150-170 g) were injected subcutaneously in the tail with 1 mg of Mycobacterium butyricum (Difco, killed dried) suspended in 0.1 ml of light mineral oil. Symptoms of immune reactivity were present after 2 weeks. […] The severity of disease in each animal was quantified by measurement of the hind paw thickness. […]

[12] = tested on: female Swiss-Webster mice; settings: mouse, in vivo
Procedure: The compounds are soluble to at least 15 mg/ml in 50% dimethylsulfoxide: 50% phosphate-buffered saline (DMSO:PBS) for intraperitoneal (IP) administration or Polyethylene glycol-400 (PEG400) for oral dosing.

[13] = physchem; settings: aqueous with cosolvent or surfactant or cyclodextrin
[14] = tested on: endogenous SK in human chondrocytes (HC); experiment: Cell-based S1P formation assay, human chondrocytes; settings: HCs; read-out: drug concentration that decreases S1P formation by 50%
Procedure: (§2) A cell-based assay in which the phosphorylation of exogenously added [^3H]sphingosine to [^3H]S1P by endogenous SK can be quantified (French et al., Cancer Res 63: 5962 (2003)) was used to evaluate the effects of test compounds on the activity of SK in intact cells. In this assay, cells are incubated with [^3H]sphingosine for an appropriate period of time, and then [^3H]sphingosine and [^3H]S1P (formed by endogenous SK activity) are separated by extraction and levels of both species are determined by scintillation counting. We have used a number of cell lines in this assay to confirm that the SK inhibitors are active in multiple intact cell systems. For example, human umbilical vein endothelial cells (HUVECs) are commonly used as a model of human vasculature. Additionally, rat IEC6 cells are commonly used as a model of intestinal epithelial cells.
(§3) Specifically, HUVECs, human chondrocytes (HC), and human synovial cells from a patient with RA (HFLS-RA) were examined.

[15] = tested on: endogenous SK in human synovial cells from a patient with RA (HFLS-RA); experiment: Cell-based S1P formation assay, HFLS-RA cells; settings: read-out: drug concentration that decreases S1P formation by 50%
Procedure: as §2, §3

[16] = tested on: HL-60 (human promyelocytic leukemia) cells; experiment: TNFα-induced HL-60 cell proliferation; format: cell-based; settings: 25 ng TNFα/ml, 72 hours
Procedure: FIG. 6. Inhibition of TNFα-induced HL-60 cell proliferation by SK inhibitors. HL-60 cells were serum-starved for 18 hours and then left untreated (▴) or treated with 25 ng of TNFα/ml (▾) in the presence of the indicated concentrations of Compound I, II or V. After 72 hours, the number of cells in each treatment group was quantified.
As discussed above, aberrant activation of leukocytes is a central feature of many inflammatory diseases. Because of the roles of S1P in promoting leukocyte proliferation, we examined the effects of several SK inhibitors on the proliferation of HL-60 (human promyelocytic leukemia) cells. […] Compound I was particularly effective, completely blocking the effects of TNFα at concentrations of 0.2 μM or greater.

Structure (SMILES): O=C(NCc1ccncc1)C12CC3CC(C1)CC(c1ccc(Cl)cc1)(C3)C2 [ABC294640]
- inhibition of SK [1]: inhibit SK
- SK activity ([3H]S1P formation) [2]: dose-dependent suppression of SK activity
- SK activity ([3H]S1P formation) ([3]; human endothelial cells, FIG. 2B): dose-dependent suppression of SK activity
- activation of NFκB by TNFα (luciferase) [4]: dose-dependently suppressed
- TNFα induction of ICAM-1 and VCAM-1 ([5]; 25 μM compound): completely abrogated
- TNFα-induced expression of ICAM-1 and VCAM-1 [5]: inhibited
- induction of Cox-2 activity by TNFα (PGE2 production) [6]: strongly suppressed
- induction of Cox-2 activity by TNFα (PGE2 production) [7]: strongly suppressed
- colon length ([8]; Day 6): colons of intermediate length
- colonic S1P levels (LC-MS/MS) ([8]; Day 6): markedly lower levels of colonic S1P
- histological examination of colon sections ([8]; Day 6): no or mild crypt damage, no or low levels of inflammatory cell infiltration and no edema in the submucosa
- increase in colonic myeloperoxidase (MPO) activity ([8]; Day 6): markedly attenuated
- Disease Activity Index (DAI) [8]: reduced the intensity of the IBD manifestations
- SK expression in the colon (immunohistochemistry) ([9]; DSS treated mice): clearly reduced
- colon length [9]: 6.2±0.2 cm
- serum level of IL-6 [9]: reduced the serum level of IL-6
- colonic S1P levels ([9]; oral 50 mg/kg daily, 7 days prior to sacrifice): significant reductions of S1P levels
- increase in DAI [9]: significantly suppressed the increase in DAI
- colonic levels of pro-inflammatory cytokines TNFα, IL-1β, IFN-γ and IL-6 [9]: reduced levels of the pro-inflammatory cytokines
- histologic damage of tibiotarsal joints [10]: significantly reduced histologic damage
- arthritic response (paw thickness) [11]: inhibited this arthritic response in a dose-dependent manner
- dose with no immediate or delayed toxicity ([12]; ip): at least 50 mg/kg
- dose without noticeable toxicity ([12]; po): at least 100 mg/kg
- solubility [13]: ≥ 15 mg/mL

Structure (SMILES): Oc1ccc(Nc2nc(-c3ccc(Cl)cc3)cs2)cc1 [Compound II]
- cellular levels of [3H]S1P ([3]; HUVECs): dose-dependent reductions in the cellular levels of S1P
- IC50 ([3]; HUVECs, read-out: drug concentration that decreases S1P formation by 50%): 200 nM
- IC50 [14]: 360 nM
- IC50 [15]: 190 nM
- HL-60 cell proliferation of TNFα-stimulated cells [16]: dose-dependent reductions in HL-60 cell proliferation

Structure (SMILES): O=C(O)c1cc(/N=N/c2ccc(O)c(C(=O)O)c2)ccc1O [Dipentum, reference compound]
- colon Histology Score ([8]; Day 6): consistently lower than the DSS-alone animals
- colon length ([8]; Day 6): colons of intermediate length
- elevations of colonic pro-inflammatory proteins IFN-γ, IL-1β, IL-6 and TNFα ([8]; Day 6): attenuated
- increase in colonic myeloperoxidase (MPO) activity ([8]; Day 6): markedly attenuated
- Disease Activity Index (DAI) [8]: reduced the intensity of the IBD manifestations
- colon length [9]: 6.1±0.2 cm
- serum level of IL-6 [9]: reduced the serum level of IL-6
- increase in DAI [9]: significantly suppressed the increase in DAI
- colonic levels of pro-inflammatory cytokines TNFα, IL-1β, IFN-γ and IL-6 [9]: cytokine profiles equivalent to the DSS-alone group

Structure (SMILES): O=C1C(=Cc2ccc(O)c(O)c2)Oc2ccccc21 [V]
- cellular levels of [3H]S1P ([3]; HUVECs): dose-dependent reductions in the cellular levels of S1P
- HL-60 cell proliferation of TNFα-stimulated cells [16]: dose-dependent reductions in HL-60 cell proliferation
